# Reference: patent publication US20250353891A1 (MEDIMMUNE LIMITED, priority 2022, published 2025)
# Like-named read-outs stand apart in the source and are kept apart here. Starred links: 1 amine or outer side, 2 acyl side, 3 side chain; linkers in the order of their positions; H or OH if unused. Non-standard residues stand in square brackets, D forms with d. Residues, ends and D or L forms follow the SMILES beside them. Groups on a side chain read outwards from the residue. *: point of attachment. C20 diacid = O=C(O)CCCCCCCCCCCCCCCCCCC(=O)*; C18 diacid = O=C(O)CCCCCCCCCCCCCCCCC(=O)*; γGlu = O=C(O)[C@H](CCC(=O)[*:2])N[*:1]; αMeF = C[C@](N)(Cc1ccccc1)C(=O)O; AEEA = NCCOCCOCC(=O)O; Aib = CC(C)(N)C(=O)O
# Assays:
# [1] = target: human glucagon receptor (hGCGR) (Homo sapiens, UniProt P47871); assay: cAMP production (HTRF) in CHO cells expressing hGCGR; assay type: cell-based; parameters: expressed in transfected cells; details: Table 6, peptides modified at position 17, cAMP in CHO hGCGR cells, geometric mean
# How it was run: (§1)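 Read-out: HTRF cAMP (anti-cAMP cryptate donor, cAMP-d2 acceptor in conjugate/lysis buffer), converted to % Delta F and fitted by 4-parameter logistic for EC50. Cell densities were 1×10^5 cells/mL (hGLP-1R) or 2×10^5 cells/mL (hGCGR). Stimulation lasted 30 min at room temperature.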
# [2] = target: human GLP-1 receptor (hGLP-1R) (Homo sapiens, UniProt P43220); assay: cAMP production (HTRF) in CHO cells expressing hGLP-1R; assay type: cell-based; parameters: expressed in transfected cells; details: for EC50: Table 6, peptides modified at position 17, cAMP in CHO hGLP-1R cells, geometric mean; for % Relative Potency Ratio: Table 6, % GLP-1R activity relative to GLP-1 / % GlucR activity relative to glucagon
# How it was run: as §1
# Sequence of human GLP-1 receptor (hGLP-1R) (P43220 24-463): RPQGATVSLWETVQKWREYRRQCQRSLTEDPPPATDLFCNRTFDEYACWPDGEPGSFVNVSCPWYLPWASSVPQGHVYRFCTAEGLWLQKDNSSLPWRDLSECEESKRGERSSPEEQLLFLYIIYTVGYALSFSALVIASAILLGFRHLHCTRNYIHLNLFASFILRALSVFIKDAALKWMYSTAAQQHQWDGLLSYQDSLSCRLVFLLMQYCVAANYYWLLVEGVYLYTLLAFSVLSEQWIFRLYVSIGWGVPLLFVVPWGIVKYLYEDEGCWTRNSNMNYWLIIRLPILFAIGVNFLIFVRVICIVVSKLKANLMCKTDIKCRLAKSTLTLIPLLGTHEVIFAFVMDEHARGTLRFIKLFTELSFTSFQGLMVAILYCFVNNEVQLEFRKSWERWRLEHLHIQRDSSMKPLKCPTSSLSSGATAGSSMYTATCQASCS
# Sequence of human glucagon receptor (hGCGR) (P47871 26-477): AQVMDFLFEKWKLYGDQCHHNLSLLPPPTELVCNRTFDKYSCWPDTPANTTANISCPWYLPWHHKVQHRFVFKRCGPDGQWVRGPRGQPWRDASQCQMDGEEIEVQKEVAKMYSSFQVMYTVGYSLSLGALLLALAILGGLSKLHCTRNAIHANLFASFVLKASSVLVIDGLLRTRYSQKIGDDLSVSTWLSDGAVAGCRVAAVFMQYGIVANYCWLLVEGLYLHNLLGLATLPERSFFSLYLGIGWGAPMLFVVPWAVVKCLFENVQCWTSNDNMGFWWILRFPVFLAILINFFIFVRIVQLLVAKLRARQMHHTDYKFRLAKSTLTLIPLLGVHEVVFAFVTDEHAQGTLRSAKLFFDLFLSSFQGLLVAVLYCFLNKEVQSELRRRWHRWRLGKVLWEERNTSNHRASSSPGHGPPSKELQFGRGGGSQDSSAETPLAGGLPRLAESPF
EC50 ([1]; read-out: hGluc-R EC50) [pM],EC50 ([2]; read-out: hGLP-1R EC50) [pM],% Relative Potency Ratio [2],Compound,EC50 ([1]; hGluc-R EC50 (pM)) [pM],EC50 ([2]; hGLP-1R EC50 (pM)) [pM]
72.8,62.7,2.3,CC(C)C[C@H](NC(=O)[C@H](Cc1c[nH]c2ccccc12)NC(=O)[C@H](CCCNC(=N)N)NC(=O)[C@@H](NC(=O)[C@H](Cc1ccccc1)NC(=O)[C@H](CC(=O)O)NC(=O)[C@H](CCC(N)=O)NC(=O)[C@H](C)NC(=O)[C@H](CCCNC(=N)N)NC(=O)[C@H](CCCCNC(=O)COCCOCCNC(=O)COCCOCCNC(=O)CC[C@H](NC(=O)CCCCCCCCCCCCCCCCCCC(=O)O)C(=O)O)NC(=O)[C@H](CCCCN)NC(=O)[C@H](CC(=O)O)NC(=O)[C@H](CC(C)C)NC(=O)[C@](C)(Cc1ccccc1)NC(=O)[C@H](CCCCN)NC(=O)[C@H](CO)NC(=O)[C@@H](NC(=O)[C@H](CC(=O)O)NC(=O)[C@H](CO)NC(=O)[C@@H](NC(=O)[C@H](Cc1ccccc1)NC(=O)[C@@H](NC(=O)CNC(=O)[C@H](CCC(N)=O)NC(=O)C(C)(C)NC(=O)[C@@H](N)Cc1c[nH]cn1)[C@@H](C)O)[C@@H](C)O)C(C)C)C(C)C)C(=O)N[C@@H](CC(C)C)C(=O)NC(C)(C)C(=O)N[C@@H](CCC(=O)O)C(N)=O [Peptide 441] (H-H[Aib]QGTFTSDVSK[αMeF]LDKK([AEEA-AEEA-γGlu-C20 diacid])RAQDFVRWLL[Aib]E-NH2; N-terminus assumed),,
35.8,19.1,3.7,CC(C)C[C@H](NC(=O)[C@H](Cc1c[nH]c2ccccc12)NC(=O)[C@H](CCCNC(=N)N)NC(=O)[C@@H](NC(=O)[C@H](Cc1ccccc1)NC(=O)[C@H](CC(=O)O)NC(=O)[C@H](CCC(N)=O)NC(=O)[C@H](C)NC(=O)[C@H](CCCNC(=N)N)NC(=O)[C@H](CCCCNC(=O)COCCOCCNC(=O)COCCOCCNC(=O)CC[C@H](NC(=O)CCCCCCCCCCCCCCCCC(=O)O)C(=O)O)NC(=O)[C@H](CCCCN)NC(=O)[C@H](CC(=O)O)NC(=O)[C@H](CC(C)C)NC(=O)[C@](C)(Cc1ccccc1)NC(=O)[C@H](CCCCN)NC(=O)[C@H](CO)NC(=O)[C@@H](NC(=O)[C@H](CC(=O)O)NC(=O)[C@H](CO)NC(=O)[C@@H](NC(=O)[C@H](Cc1ccccc1)NC(=O)[C@@H](NC(=O)CNC(=O)[C@H](CCC(N)=O)NC(=O)C(C)(C)NC(=O)[C@@H](N)Cc1c[nH]cn1)[C@@H](C)O)[C@@H](C)O)C(C)C)C(C)C)C(=O)N[C@@H](CC(C)C)C(=O)N[C@@H](CCC(=O)O)C(=O)NC(C)(C)C(=O)NCC(N)=O [Peptide 442] (H-H[Aib]QGTFTSDVSK[αMeF]LDKK([AEEA-AEEA-γGlu-C18 diacid])RAQDFVRWLLE[Aib]G-NH2; N-terminus assumed),,
22.4,20.6,2.2,CC(C)C[C@H](NC(=O)[C@H](Cc1c[nH]c2ccccc12)NC(=O)[C@H](CCCNC(=N)N)NC(=O)[C@@H](NC(=O)[C@H](Cc1ccccc1)NC(=O)[C@H](CC(=O)O)NC(=O)[C@H](CCCNC(=N)N)NC(=O)[C@H](C)NC(=O)[C@H](CCCNC(=N)N)NC(=O)[C@H](CCCCNC(=O)COCCOCCNC(=O)COCCOCCNC(=O)CC[C@H](NC(=O)CCCCCCCCCCCCCCCCC(=O)O)C(=O)O)NC(=O)[C@H](CCCCN)NC(=O)[C@H](CC(=O)O)NC(=O)[C@H](CC(C)C)NC(=O)[C@](C)(Cc1ccccc1)NC(=O)[C@H](CCCCN)NC(=O)[C@H](CO)NC(=O)[C@@H](NC(=O)[C@H](CC(=O)O)NC(=O)[C@H](CO)NC(=O)[C@@H](NC(=O)[C@H](Cc1ccccc1)NC(=O)[C@@H](NC(=O)CNC(=O)[C@H](CCC(N)=O)NC(=O)C(C)(C)NC(=O)[C@@H](N)Cc1c[nH]cn1)[C@@H](C)O)[C@@H](C)O)C(C)C)C(C)C)C(=O)N[C@@H](CC(C)C)C(=O)NC(C)(C)C(=O)N[C@@H](CCC(=O)O)C(N)=O [Peptide 443] (H-H[Aib]QGTFTSDVSK[αMeF]LDKK([AEEA-AEEA-γGlu-C18 diacid])RARDFVRWLL[Aib]E-NH2; N-terminus assumed),,
,,,CC(C)C[C@H](NC(=O)[C@H](Cc1c[nH]c2ccccc12)NC(=O)[C@H](CCC(N)=O)NC(=O)[C@@H](NC(=O)[C@H](Cc1ccccc1)NC(=O)[C@H](CC(=O)O)NC(=O)[C@H](CCCNC(=N)N)NC(=O)[C@H](C)NC(=O)[C@H](CCCNC(=N)N)NC(=O)[C@H](CCCCNC(=O)COCCOCCNC(=O)COCCOCCNC(=O)CC[C@H](NC(=O)CCCCCCCCCCCCCCCCC(=O)O)C(=O)O)NC(=O)[C@@H](NC(=O)[C@H](CCC(=O)O)NC(=O)[C@H](CC(C)C)NC(=O)[C@](C)(Cc1ccccc1)NC(=O)[C@H](CCCCN)NC(=O)[C@H](CO)NC(=O)[C@@H](NC(=O)[C@H](CC(=O)O)NC(=O)[C@H](CO)NC(=O)[C@@H](NC(=O)[C@H](Cc1ccccc1)NC(=O)[C@@H](NC(=O)CNC(=O)[C@H](CCC(N)=O)NC(=O)C(C)(C)NC(=O)[C@@H](N)Cc1c[nH]cn1)[C@@H](C)O)[C@@H](C)O)C(C)C)[C@@H](C)O)C(C)C)C(=O)N[C@@H](CC(C)C)C(=O)N[C@@H](CCC(=O)O)C(=O)NC(C)(C)C(=O)NCC(=O)O [Peptide 445] (H-H[Aib]QGTFTSDVSK[αMeF]LETK([AEEA-AEEA-γGlu-C18 diacid])RARDFVQWLLE[Aib]G-OH),684,33
366,32.9,22.0,CC(C)C[C@H](NC(=O)[C@H](Cc1c[nH]c2ccccc12)NC(=O)[C@H](CCCNC(=N)N)NC(=O)[C@@H](NC(=O)[C@H](Cc1ccccc1)NC(=O)[C@H](CC(=O)O)NC(=O)[C@H](CCC(N)=O)NC(=O)[C@H](C)NC(=O)[C@H](CCCNC(=N)N)NC(=O)[C@H](CCCCNC(=O)COCCOCCNC(=O)COCCOCCNC(=O)CC[C@H](NC(=O)CC[C@H](NC(=O)CCCCCCCCCCCCCCCCC(=O)O)C(=O)O)C(=O)O)NC(=O)[C@H](CCCNC(=N)N)NC(=O)[C@H](CC(=O)O)NC(=O)[C@H](CC(C)C)NC(=O)[C@](C)(Cc1ccccc1)NC(=O)[C@H](CCCCN)NC(=O)[C@H](CO)NC(=O)[C@@H](NC(=O)[C@H](CC(=O)O)NC(=O)[C@H](CO)NC(=O)[C@@H](NC(=O)[C@H](Cc1ccccc1)NC(=O)[C@@H](NC(=O)CNC(=O)[C@H](CCC(N)=O)NC(=O)C(C)(C)NC(=O)[C@@H](N)Cc1c[nH]cn1)[C@@H](C)O)[C@@H](C)O)C(C)C)C(C)C)C(=O)N[C@H](C(=O)NC(C)(C)C(=O)N[C@@H](CCC(=O)O)C(N)=O)C(C)C [Peptide 446] (H-H[Aib]QGTFTSDVSK[αMeF]LDRK([AEEA-AEEA-γGlu-γGlu-C18 diacid])RAQDFVRWLV[Aib]E-NH2; N-terminus assumed),,
667,170,7.8,CC(C)C[C@H](NC(=O)[C@H](Cc1c[nH]c2ccccc12)NC(=O)[C@H](CCCNC(=N)N)NC(=O)[C@@H](NC(=O)[C@H](Cc1ccccc1)NC(=O)[C@H](CC(=O)O)NC(=O)[C@H](CCC(N)=O)NC(=O)[C@H](C)NC(=O)[C@H](CCCNC(=N)N)NC(=O)[C@H](CCCCNC(=O)COCCOCCNC(=O)COCCOCCNC(=O)CC[C@H](NC(=O)CC[C@H](NC(=O)CCCCCCCCCCCCCCCCCCC(=O)O)C(=O)O)C(=O)O)NC(=O)[C@H](CCCNC(=N)N)NC(=O)[C@H](CC(=O)O)NC(=O)[C@H](CC(C)C)NC(=O)[C@](C)(Cc1ccccc1)NC(=O)[C@H](CCCCN)NC(=O)[C@H](CO)NC(=O)[C@@H](NC(=O)[C@H](CC(=O)O)NC(=O)[C@H](CO)NC(=O)[C@@H](NC(=O)[C@H](Cc1ccccc1)NC(=O)[C@@H](NC(=O)CNC(=O)[C@H](CCC(N)=O)NC(=O)C(C)(C)NC(=O)[C@@H](N)Cc1c[nH]cn1)[C@@H](C)O)[C@@H](C)O)C(C)C)C(C)C)C(=O)N[C@H](C(=O)NC(C)(C)C(=O)N[C@@H](CCC(=O)O)C(N)=O)C(C)C [Peptide 447] (H-H[Aib]QGTFTSDVSK[αMeF]LDRK([AEEA-AEEA-γGlu-γGlu-C20 diacid])RAQDFVRWLV[Aib]E-NH2; N-terminus assumed),,
29,53.1,1.1,CC(C)C[C@H](NC(=O)[C@H](Cc1c[nH]c2ccccc12)NC(=O)[C@H](CCCNC(=N)N)NC(=O)[C@@H](NC(=O)[C@H](Cc1ccccc1)NC(=O)[C@H](CC(=O)O)NC(=O)[C@H](CCCNC(=N)N)NC(=O)[C@H](C)NC(=O)[C@H](CCCNC(=N)N)NC(=O)[C@H](CCCCNC(=O)COCCOCCNC(=O)COCCOCCNC(=O)CC[C@H](NC(=O)CC[C@H](NC(=O)CCCCCCCCCCCCCCCCC(=O)O)C(=O)O)C(=O)O)NC(=O)[C@H](CCCCN)NC(=O)[C@H](CC(=O)O)NC(=O)[C@H](CC(C)C)NC(=O)[C@](C)(Cc1ccccc1)NC(=O)[C@H](CCCCN)NC(=O)[C@H](CO)NC(=O)[C@@H](NC(=O)[C@H](CC(=O)O)NC(=O)[C@H](CO)NC(=O)[C@@H](NC(=O)[C@H](Cc1ccccc1)NC(=O)[C@@H](NC(=O)CNC(=O)[C@H](CCC(N)=O)NC(=O)C(C)(C)NC(=O)[C@@H](N)Cc1c[nH]cn1)[C@@H](C)O)[C@@H](C)O)C(C)C)C(C)C)C(=O)N[C@@H](CC(C)C)C(=O)NC(C)(C)C(=O)N[C@@H](CCC(=O)O)C(=O)O [Peptide 448] (H-H[Aib]QGTFTSDVSK[αMeF]LDKK([AEEA-AEEA-γGlu-γGlu-C18 diacid])RARDFVRWLL[Aib]E-OH),,
